Results: patent US10227324B2 (Shanghai Haiyan Pharmaceutical Technology Co., Ltd., priority 2014, dated 2019)
Read-outs that look alike come from different tables or passages of the source.

Columns and labels:
[1] = target: T1, PI3K-α kinase (p110α/p85α) (Homo sapiens, UniProt P42336); test: Determination of PI3K kinase activity (ADP Transcreener, fluorescence polarization); format: biochemical; settings: ATP 10 μM
T1 construct: purchased Invitrogen PV4788
Description: (§1) The inhibition of PI3K kinase activity by the compound to be tested was determined by the following method. The working concentration of each component in the 25 μL enzyme reaction system was: p110α/p85α 3 ng (or p110β/p85α 60 ng, or p110δ/p85α 90 ng, or p110γ 100 ng), ATP 10 μM, PIP2: PS (Invitrogen PV5100) 30 μM and the DMSO concentration was 2% after addition of the compound to be tested.
(§2) At the time of the test, the compound to be tested was dissolved in dimethylsulfoxide (DMSO) according to the desired concentration of the experiment. The compound to be tested was gradiently diluted 3 times (0.00046-1 μM, 8 concentration points) with 10% DMSO. 5 μL of the compound to be tested was added to each well of a 96-well plate (Greiner 675076) in duplicate. […] 10 μL of ATP/PIP2: PS and 10 μL of the PI3K enzyme working solution were added to each well in a 96-well plate. The plate was shaken and mixed uniformly, and then incubated at 25° C. for 1 hour. At the same time, ADP and ATP (0.01 μM, 0.02 μM, 0.04 μM, 0.06 μM, 0.08 μM[…], 0.1 μM, 0.25 μM, 0.5 μM, 1 μM, 2 μM, 5 μM, 10 μM, 12 concentration points) were diluted with buffer to set the standard curve. After completion of the enzyme reaction, 25 μL of ADP assay solution (1% 100×ADP tracer, 0.79% ADP antibody and 10% 10× reaction stop solution) was added and incubated at 25° C. for 1 hour. Fluorescence polarization value [mP] of each well was measured with a Perkin Elmer Victor X5 Fluorescent Microplate. The ADP concentration [ADP] was calculated from the ADP/ATP standard curve and the IC50 values were calculated using the XLFit software.

PI3K-γ kinase (p110γ) = target: T2, PI3K-γ kinase (p110γ) (Homo sapiens, UniProt P48736); test: as above; format: biochemical; settings: Table 1; ATP 10 μM; read-out: PI3K-γ/nM (IC50 of inhibitory activity against PI3K kinase)
T2 construct: purchased Invitrogen PV4786
T2 sequence (P48736 whole entry): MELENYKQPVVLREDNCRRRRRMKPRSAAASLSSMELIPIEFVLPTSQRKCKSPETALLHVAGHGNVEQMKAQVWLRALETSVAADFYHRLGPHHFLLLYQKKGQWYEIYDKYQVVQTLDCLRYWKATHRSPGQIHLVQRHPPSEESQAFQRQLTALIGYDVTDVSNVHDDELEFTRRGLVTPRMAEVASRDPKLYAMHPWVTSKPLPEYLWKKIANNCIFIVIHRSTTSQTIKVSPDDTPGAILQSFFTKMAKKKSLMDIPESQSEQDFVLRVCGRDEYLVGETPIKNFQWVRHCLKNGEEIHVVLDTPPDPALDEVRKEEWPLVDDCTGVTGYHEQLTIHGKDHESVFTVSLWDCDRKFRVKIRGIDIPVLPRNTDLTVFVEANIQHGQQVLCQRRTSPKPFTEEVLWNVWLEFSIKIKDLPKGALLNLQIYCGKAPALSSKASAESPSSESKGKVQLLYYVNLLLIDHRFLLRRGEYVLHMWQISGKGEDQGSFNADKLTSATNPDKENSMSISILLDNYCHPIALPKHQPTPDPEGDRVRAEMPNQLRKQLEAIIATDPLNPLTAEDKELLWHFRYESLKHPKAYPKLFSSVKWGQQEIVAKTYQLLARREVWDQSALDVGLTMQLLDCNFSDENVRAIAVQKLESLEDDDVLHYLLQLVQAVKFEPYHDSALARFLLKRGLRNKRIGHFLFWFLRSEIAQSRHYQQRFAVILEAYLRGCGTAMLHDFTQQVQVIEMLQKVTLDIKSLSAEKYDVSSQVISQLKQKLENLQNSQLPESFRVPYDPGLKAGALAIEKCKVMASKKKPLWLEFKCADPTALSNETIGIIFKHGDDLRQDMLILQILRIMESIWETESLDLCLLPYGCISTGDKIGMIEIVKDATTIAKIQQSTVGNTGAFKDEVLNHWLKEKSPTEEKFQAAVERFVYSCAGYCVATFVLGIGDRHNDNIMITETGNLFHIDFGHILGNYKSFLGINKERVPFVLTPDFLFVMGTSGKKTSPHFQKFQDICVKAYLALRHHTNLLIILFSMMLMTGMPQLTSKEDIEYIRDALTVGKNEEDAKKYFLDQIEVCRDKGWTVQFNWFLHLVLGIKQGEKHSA
Description: The PI3K kinase used in the experiment: p110α/p85α (Invitrogen PV4788), p110β/p85α (Millipore 14-603), p110δ/p85α (Millipore 14-604M), and p110γ (Invitrogen PV4786).
as §1
as §2, with “duplicate. 2.5× buffer was prepared and 1 μL of DTT (Millipore 20-265) was added to each 800 μL of 2.5× buffer.” for “duplicate.”

[2] = target: T3, PI3K-δ kinase (p110δ/p85α) (Homo sapiens, UniProt O00329); test: as above; format: biochemical; settings: Table 1; ATP 10 μM; read-out: PI3K-δ/nM (IC50 of inhibitory activity against PI3K kinase)
T3 construct: purchased Millipore 14-604M
T3 sequence (O00329 whole entry): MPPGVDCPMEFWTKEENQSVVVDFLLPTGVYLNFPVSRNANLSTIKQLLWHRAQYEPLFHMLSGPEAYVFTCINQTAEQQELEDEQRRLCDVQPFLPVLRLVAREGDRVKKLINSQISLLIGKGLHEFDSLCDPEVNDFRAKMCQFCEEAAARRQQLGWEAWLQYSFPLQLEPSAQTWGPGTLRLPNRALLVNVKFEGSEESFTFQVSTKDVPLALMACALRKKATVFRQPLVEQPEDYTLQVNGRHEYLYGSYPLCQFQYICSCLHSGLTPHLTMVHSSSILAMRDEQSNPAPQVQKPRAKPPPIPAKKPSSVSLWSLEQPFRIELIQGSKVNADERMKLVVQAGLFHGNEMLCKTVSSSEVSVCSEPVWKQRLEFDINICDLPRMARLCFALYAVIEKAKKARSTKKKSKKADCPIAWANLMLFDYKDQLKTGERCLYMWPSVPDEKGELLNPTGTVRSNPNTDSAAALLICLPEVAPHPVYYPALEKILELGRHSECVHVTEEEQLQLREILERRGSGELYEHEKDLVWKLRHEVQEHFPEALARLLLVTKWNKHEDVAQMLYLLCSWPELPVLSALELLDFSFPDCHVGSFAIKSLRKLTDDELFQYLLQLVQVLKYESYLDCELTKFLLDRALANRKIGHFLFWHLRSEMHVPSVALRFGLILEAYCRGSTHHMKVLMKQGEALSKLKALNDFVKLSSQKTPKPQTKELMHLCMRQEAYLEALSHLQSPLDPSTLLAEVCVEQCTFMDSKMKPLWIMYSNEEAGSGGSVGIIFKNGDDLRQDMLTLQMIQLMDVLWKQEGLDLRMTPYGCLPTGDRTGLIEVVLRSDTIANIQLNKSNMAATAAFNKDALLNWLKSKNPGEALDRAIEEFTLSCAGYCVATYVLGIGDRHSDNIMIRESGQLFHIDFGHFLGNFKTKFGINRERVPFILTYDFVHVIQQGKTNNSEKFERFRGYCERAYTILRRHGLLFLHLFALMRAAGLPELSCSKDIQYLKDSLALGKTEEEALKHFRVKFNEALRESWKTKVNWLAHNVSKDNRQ
T3 sequence (P27986 whole entry partner): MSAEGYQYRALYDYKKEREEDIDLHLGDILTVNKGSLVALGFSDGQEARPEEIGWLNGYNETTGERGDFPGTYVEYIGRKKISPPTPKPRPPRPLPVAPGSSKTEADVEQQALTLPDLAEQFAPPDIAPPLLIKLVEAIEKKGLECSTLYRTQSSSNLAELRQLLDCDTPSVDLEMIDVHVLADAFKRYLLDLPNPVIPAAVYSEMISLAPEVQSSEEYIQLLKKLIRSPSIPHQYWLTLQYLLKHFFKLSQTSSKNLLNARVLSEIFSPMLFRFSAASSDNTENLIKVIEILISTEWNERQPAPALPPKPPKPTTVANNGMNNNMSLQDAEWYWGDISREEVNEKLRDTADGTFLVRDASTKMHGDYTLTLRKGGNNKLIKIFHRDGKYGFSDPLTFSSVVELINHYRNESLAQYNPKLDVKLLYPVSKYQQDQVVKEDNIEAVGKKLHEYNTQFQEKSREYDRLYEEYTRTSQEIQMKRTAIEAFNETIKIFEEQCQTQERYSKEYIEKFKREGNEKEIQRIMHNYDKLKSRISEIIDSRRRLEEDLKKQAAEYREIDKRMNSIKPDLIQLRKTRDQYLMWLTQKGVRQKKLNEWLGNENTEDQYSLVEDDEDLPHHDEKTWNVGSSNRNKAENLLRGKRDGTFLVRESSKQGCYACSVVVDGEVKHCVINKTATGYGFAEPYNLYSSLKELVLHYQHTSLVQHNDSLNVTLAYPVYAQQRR
Description: as §1, §2

[3] = target: T4, PI3K-β kinase (p110β/p85α) (Homo sapiens, UniProt P42338); test: as above; format: biochemical; settings: Table 1; ATP 10 μM; read-out: PI3K-β/nM (IC50 of inhibitory activity against PI3K kinase)
T4 construct: purchased Millipore 14-603
T4 sequence (P42338 whole entry): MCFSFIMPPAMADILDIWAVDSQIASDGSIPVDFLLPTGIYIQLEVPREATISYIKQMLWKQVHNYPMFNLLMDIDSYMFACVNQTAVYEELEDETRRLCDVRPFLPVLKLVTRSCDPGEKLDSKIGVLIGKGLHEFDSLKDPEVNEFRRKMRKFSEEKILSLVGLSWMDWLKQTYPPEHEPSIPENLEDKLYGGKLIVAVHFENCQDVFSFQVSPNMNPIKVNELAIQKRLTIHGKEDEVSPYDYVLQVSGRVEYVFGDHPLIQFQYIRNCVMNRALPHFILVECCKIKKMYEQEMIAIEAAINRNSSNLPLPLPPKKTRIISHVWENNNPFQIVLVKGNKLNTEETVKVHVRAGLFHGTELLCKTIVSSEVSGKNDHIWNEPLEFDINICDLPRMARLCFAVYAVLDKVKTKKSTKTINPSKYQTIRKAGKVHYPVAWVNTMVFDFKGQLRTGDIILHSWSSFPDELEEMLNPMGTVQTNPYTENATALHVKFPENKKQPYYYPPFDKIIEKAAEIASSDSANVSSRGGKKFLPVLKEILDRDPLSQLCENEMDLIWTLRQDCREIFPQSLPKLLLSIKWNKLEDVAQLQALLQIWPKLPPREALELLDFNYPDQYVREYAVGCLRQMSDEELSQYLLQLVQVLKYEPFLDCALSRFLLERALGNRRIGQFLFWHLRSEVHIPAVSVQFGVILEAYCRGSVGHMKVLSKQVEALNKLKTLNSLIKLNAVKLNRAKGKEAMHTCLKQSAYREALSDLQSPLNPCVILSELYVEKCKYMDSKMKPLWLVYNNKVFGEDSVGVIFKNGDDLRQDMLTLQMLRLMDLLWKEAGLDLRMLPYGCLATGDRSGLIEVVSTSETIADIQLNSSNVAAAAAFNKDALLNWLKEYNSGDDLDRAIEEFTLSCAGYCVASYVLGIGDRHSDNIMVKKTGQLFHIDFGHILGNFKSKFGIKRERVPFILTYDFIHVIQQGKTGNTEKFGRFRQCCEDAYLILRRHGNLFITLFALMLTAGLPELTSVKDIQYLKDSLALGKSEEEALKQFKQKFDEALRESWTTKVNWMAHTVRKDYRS
T4 sequence (P27986 whole entry partner): as the sequence (P27986 whole entry partner) above
Description: as §1, §2

MCF-7 cells = test: Cell inhibitory activity detected by MTT assay, MCF-7; format: cell-based; settings: Homo sapiens, MCF7, 72 h, read-out: MCF-7 cell (IC50/nM), cell growth inhibition
Description: (§3) The MTT assay procedure and steps were carried out as well known to those skilled in the art, and all the reagents used in the methods were commercially available. The cells in logarithmic growth phase were digested with 0.25% EDTA trypsin (Gibco, 25200-056) and resuspended in fresh medium. 90 μL of the cell suspension was inoculated into a 96-well cell culture plate (BD Faclon 353072) with a suitable cell density and cultured at 37° C. under 5% CO2. After the cells adhered, 10 μL of the test compound at different concentrations (0.0046-10 μM, 8 concentration points) was added and incubated for another 72 h. 10 μL of MTT (5 mg/mL PBS solution) (Sigma, M5655) was added to react for 4 h. The absorbance at 492 nm was measured by using Thermo Scientific Multiskan MK3 microplate reader and IC50 was calculated using XLFIT 5.0 software (UK IDBS). MCF-7 cell culture medium: DMEM medium (Hyclone SH30243.01B+10% FBS (Gibco 10099-141)

T47D cells = test: Cell inhibitory activity detected by MTT assay, T47D; format: cell-based; settings: Homo sapiens, T47D, 72 h, read-out: T47D cell (IC50/nM), cell growth inhibition
Description: as §3, with “T47D” for “MCF-7”, “RPMI-1640” for “DMEM”, “SH30809.01B)+10%” for “SH30243.01B+10%”

[4] = Table 2, read-out: PI3K-α/nM (IC50 of inhibitory activity against PI3K-α kinase)
[5] = Table 1, read-out: PI3K-α/nM (IC50 of inhibitory activity against PI3K kinase)

T1 sequence (P42336 whole entry): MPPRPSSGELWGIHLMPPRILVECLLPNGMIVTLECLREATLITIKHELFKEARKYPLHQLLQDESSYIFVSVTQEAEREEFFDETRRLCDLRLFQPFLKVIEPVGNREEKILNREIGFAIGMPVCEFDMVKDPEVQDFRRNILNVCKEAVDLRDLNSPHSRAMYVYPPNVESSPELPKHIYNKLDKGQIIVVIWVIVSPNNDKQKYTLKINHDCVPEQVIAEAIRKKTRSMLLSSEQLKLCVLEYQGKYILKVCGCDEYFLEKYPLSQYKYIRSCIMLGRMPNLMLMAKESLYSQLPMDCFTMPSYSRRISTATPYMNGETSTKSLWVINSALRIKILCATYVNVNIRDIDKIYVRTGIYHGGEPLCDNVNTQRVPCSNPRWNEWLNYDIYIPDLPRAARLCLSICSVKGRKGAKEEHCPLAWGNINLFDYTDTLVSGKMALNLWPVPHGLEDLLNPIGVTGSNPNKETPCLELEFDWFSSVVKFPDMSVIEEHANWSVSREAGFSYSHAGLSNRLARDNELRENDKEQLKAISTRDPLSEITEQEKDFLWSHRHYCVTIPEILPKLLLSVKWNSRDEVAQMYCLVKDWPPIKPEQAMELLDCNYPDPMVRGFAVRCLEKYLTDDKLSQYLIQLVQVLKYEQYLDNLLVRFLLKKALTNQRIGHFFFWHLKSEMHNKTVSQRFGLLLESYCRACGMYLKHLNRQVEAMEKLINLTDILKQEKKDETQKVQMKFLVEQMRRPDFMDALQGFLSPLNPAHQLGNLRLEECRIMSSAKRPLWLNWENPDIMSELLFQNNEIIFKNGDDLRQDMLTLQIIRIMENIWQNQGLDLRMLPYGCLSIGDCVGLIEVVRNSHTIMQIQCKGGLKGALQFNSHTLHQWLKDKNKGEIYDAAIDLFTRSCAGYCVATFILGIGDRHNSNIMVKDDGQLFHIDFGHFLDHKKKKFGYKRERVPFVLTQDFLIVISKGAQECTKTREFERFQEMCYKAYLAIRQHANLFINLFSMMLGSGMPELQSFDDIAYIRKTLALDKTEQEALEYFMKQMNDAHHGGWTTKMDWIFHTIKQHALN
T1 sequence (P27986 whole entry partner): as the sequence (P27986 whole entry partner) above

| IC50 [1, 4] [nM] | IC50 (PI3K-γ kinase (p110γ)) [nM] | IC50 [1, 5] [nM] | IC50 [2] [nM] | IC50 [3] [nM] | IC50 (MCF-7 cells) [nM] | IC50 (T47D cells) [nM] | SMILES |
| --- | --- | --- | --- | --- | --- | --- | --- |
| > 1000 |  |  |  |  |  |  | CS(=O)(=O)C1(c2cc(-c3ccc(N)cc3C(F)(F)F)nc(N3CCOCC3)n2)CC1 [Comparative compound 3, 4-(6-(1-(methylsulfonyl)cyclopropyl)-2-morpholinopyrimidin-4-yl)-3-(trifluoromethyl)aniline, reference compound] |
|  | 288 | 16 |  |  |  |  | CS(=O)(=O)C1(c2cc(-c3cnc(N)cc3C(F)(F)F)nc(N3CCOCC3)n2)CC1 [Compound S-1, 5-(6-(1-(methylsulfonyl)cyclopropyl)-2-morpholinopyrimidin-4-yl)-4-(trifluoromethyl)pyridin-2-amine] |
|  | 138 |  | 244 | 196 |  |  | CC(C)(c1cc(-c2cnc(N)cc2C(F)(F)F)nc(N2CCOCC2)n1)S(C)(=O)=O [Compound S-16] |
| 285 |  |  |  |  |  |  | CNC1(c2cc(-c3cnc(N)cc3C(F)(F)F)nc(N3CCOC[C@@H]3C)n2)CCC1 [Compound S-27, (S)-5-(6-(1-(methylamino)cyclobutyl)-2-(3-methylmorpholino)pyrimidin-4-yl)-4-(trifluoromethyl)pyridin-2-amine] |
|  | 765 |  | 78 | 121 |  |  | CCS(=O)(=O)C1(c2cc(-c3cnc(N)cc3C(F)(F)F)nc(N3CCOCC3)n2)CC1 [Compound S-28] |
|  | 718 |  | 324 | 1210 | 159 | 139 | C[C@H]1COCCN1c1nc(-c2cnc(N)cc2C(F)(F)F)cc(C2(S(C)(=O)=O)CCCC2)n1 [Compound S-42] |
|  |  |  |  |  |  | 317 | COc1nc(N)ncc1-c1cc(C2(S(C)(=O)=O)CCC2)nc(N2CCOC[C@@H]2C)n1 [Compound S-43] |
| 40 |  |  |  |  |  |  | CC(C)(c1cc(-c2cnc(N)cc2Cl)nc(N2CCOCC2)n1)S(=O)(=O)c1ccccc1 [Compound S-55, 4-chloro-5-(2-morpholinyl-6-(2-(phenylsulfonyl)propan-2-yl)pyrimidin-4-yl)pyridin-2-amine] |
| 35 |  |  |  |  |  |  | CC(C)(c1cc(-c2cnc(N)cc2C(F)(F)F)nc(N2CCOCC2)n1)S(=O)(=O)c1cccc(F)c1 [Compound S-60] |
| 195 |  |  |  |  |  |  | Cc1cnc(C2(c3cc(-c4cnc(N)cc4C(F)(F)F)nc(N4CCOCC4)n3)CC2)o1 [Compound S-61, 5-(6-(1-(5-methyloxazol-2-yl)cyclopropyl)-2-morpholinopyrimidin-4-yl)-4-(trifluoromethyl)pyridin-2-amine] |
| 189 |  |  |  |  |  |  | CS(=O)(=O)Cc1cc(-c2cnc(N)cc2C(F)(F)F)nc(N2CCOCC2)n1 [Compound S-62, 5-(6-(methylsulfonylmethyl)-2-morpholinopyrimidin-4-yl)-4-(trifluoromethyl)pyridin-2-amine] |
| 22 |  | 22 |  | 1220 | 469 | 280 | CC(C)(c1cc(-c2cnc(N)cc2C(F)(F)F)nc(N2CCOCC2)n1)S(=O)(=O)c1ccccc1F [Compound S-65] |
| 59 |  |  |  |  |  |  | CC(C)(c1cc(-c2cnc(N)cc2C(F)(F)F)nc(N2CCOCC2)n1)S(=O)(=O)c1ccc(F)cc1 [Compound S-69] |
| 22 |  | 22 |  | 525 |  | 219 | CC(C)(c1cc(-c2cnc(N)cc2Cl)nc(N2CCOCC2)n1)S(=O)(=O)c1cccc(F)c1 [Compound S-70] |
| 18 | 1150 | 18 | 370 | 797 |  |  | C[C@@H]1COCCN1c1nc(-c2cnc(N)cc2C(F)(F)F)cc(C(C)(C)O)n1 [Compound S-72] |
| 14 | 623 | 14 | 514 | 396 | 176 |  | C[C@H]1COCCN1c1nc(-c2cnc(N)cc2Cl)cc(C(C)(C)O)n1 [Compound S-73] |
| 28 | 2500 | 28 | 1010 | 2090 |  |  | COC(C)(C)c1cc(-c2cnc(N)cc2C(F)(F)F)nc(N2CCOC[C@H]2C)n1 [Compound S-74] |
| 62 |  |  |  |  |  |  | Nc1cc(C(F)(F)F)c(-c2cc(C3(S(=O)(=O)c4ccc(F)c(F)c4)CC3)nc(N3CCOCC3)n2)cn1 [Compound S-77] |
| 7 | 925 | 7 | 85 | 419 | 318 | 206 | Nc1cc(C(F)(F)F)c(-c2cc(C3(S(=O)(=O)c4ccccc4Cl)CC3)nc(N3CCOCC3)n2)cn1 [Compound S-78] |
| 55 |  |  |  |  |  |  | CC(C)(c1cc(-c2cnc(N)cc2C(F)(F)F)nc(N2CCOCC2)n1)S(=O)(=O)c1ccc(F)c(F)c1 [Compound S-79] |
| 31 |  |  |  |  | 474 |  | CC(C)(c1cc(-c2cnc(N)cc2C(F)(F)F)nc(N2CCOCC2)n1)S(=O)(=O)c1ccccc1Cl [Compound S-80] |
| 14 | 134 | 14 | 117 | 386 | 170 | 101 | Nc1cc(Cl)c(-c2cc(C3(S(=O)(=O)C4CC4)CC3)nc(N3CCOCC3)n2)cn1 [Compound S-87] |
| 75 |  |  |  |  |  |  | CS(=O)(=O)NC1(c2cc(-c3cnc(N)cc3Cl)nc(N3CCOCC3)n2)CC1 [Compound S-90] |
